In brackets after ≈: the same amount, converted by molar mass. Counter-ions that a name gives are not always drawn.
Experiments:
physchem = conditions: organic solvent or mixture, thermodynamic from solid
Dutch Belted rabbits = experiment: In vivo pharmacology study: pupil size after topical ocular instillation of eye drop formulation; conditions: for pupil size change from baseline: female Dutch Belted rabbits; for retention of pupil dilation during the measurement period: measured up to 24 hour after dosing
Description: The test compound was administered to each animal by topical ocular instillation of 40 μL of eye drop formulation just once at day 1. The pupil size of both eyes of all animals were measured at baseline (30 minutes before dosing), 0.5 hour, 1 hour, 2 hour, 4 hour, 6 hour, 8 hour, 12 hour, and 24 hour after dosing. Pupil sizes were measured in both eyes of all animals on 3 separate days during acclimation prior to dosing initiation. Set the light intensity in the procedure room so that the animal's pupil size was about 6-7 mm. Light intensity of the procedure room for pupil size measurement should be maintained constant throughout the pupil size measurement procedures in the study. Pupil size change from baseline was calculated for each eye of each individual animal separately for each postdose timepoint. Mean and standard error of pupil size change from baseline were calculated for each group per postdose timepoint and plotted mean of pupil change from baseline against timepoint comparisons.

[1] = 0.4% formulation in F6H8, single 40 μL eye drop

Work on CCCCCCCCCCCCCCCCCC(=O)O[C@H]1CC[C@@]2(C)C(=CC[C@H]3[C@@H]4CC[C@H]([C@H](C)CCCC(C)C)[C@@]4(C)CC[C@@H]32)C1 [cholesteryl stearate, reference compound] yielded a solubility at 30 min (physchem) of 26.2 µg/mL (≈ 0.0402 mM).

Compound CC(C)CCC[C@@H](C)[C@H]1CC[C@H]2[C@@H]3CC=C4C[C@@H](O)CC[C@]4(C)[C@H]3CC[C@]12C [cholesterol, reference compound] has a solubility at 30 min (physchem; perfluorohexyloctane (F6H8)) of 79.7 µg/mL (≈ 0.206 mM).

CCCCCC=CCCC(=O)OCC(C(=O)O[C@H]1C[C@H]2CC[C@@H](C1)N2C)c1ccccc1 (some centres unmarked) [Compound 13, atropine dec-4-enoate] showed a solubility at 30 min (physchem) of 4900 µg/mL (≈ 11.1 mM).

For CCCCC/C=C\C/C=C\CCCCCCCC(=O)OCC(C(=O)O[C@H]1C[C@H]2CC[C@@H](C1)N2C)c1ccccc1 (stereo partly drawn) [Compound 2, 3-(((1R,3r,5S)-8-methyl-8-azabicyclo[3.2.1]octan-3-yl)oxy)-3-oxo-2-phenylpropyl (9Z,12Z)-octadeca-9,12-dienoate], the solubility at 30 min (physchem) was 3870 µg/mL (≈ 7.01 mM), the “pupil size change from baseline” value (Dutch Belted rabbits; [1]) was “over 10%” and the “retention of pupil dilation during the measurement period” value (Dutch Belted rabbits; [1]) was “remained significantly dilated from baseline during the measurement period”.

Work on CCCCCCCCCCCCCCCC(=O)OCC(C(=O)O[C@H]1C[C@H]2CC[C@@H](C1)N2C)c1ccccc1 (some centres unmarked) [Compound 7, atropine palmitate] yielded a solubility at 30 min (physchem) of 5610 µg/mL (≈ 10.6 mM).

With CN1[C@@H]2CC[C@H]1C[C@@H](OC(=O)C(CO)c1ccccc1)C2 (some centres unmarked) [atropine sulfate monohydrate, reference compound] the “pupil size change from baseline” value (Dutch Belted rabbits; 0.01% in normal saline, single 40 μL eye drop, 1 hour or 2 hour post-dose) was “about 5%”.

For CCCCCCCC/C=C\CCCCCCCC(=O)OCC(C(=O)O[C@H]1C[C@H]2CC[C@@H](C1)N2C)c1ccccc1 (stereo partly drawn) [Compound 1, 3-(((1R,3r,5S)-8-methyl-8-azabicyclo[3.2.1]octan-3-yl)oxy)-3-oxo-2-phenylpropyl (9Z)-octadec-9-enoate], the solubility at 30 min (physchem) was 5000 µg/mL (≈ 9.03 mM), the “pupil size change from baseline” value (Dutch Belted rabbits; [1]) was “comparable pupil size dilation as the 0.01% atropine sulfate monohydrate” and the “retention of pupil dilation during the measurement period” value (Dutch Belted rabbits; [1]) was “retained the pupil dilation throughout the measurement period”.

— patent US20250115596A1, “ESTERS OF 8-METHYL-8-AZABICYCLO[3.2.1] OCTAN-3-YL 3-HYDROXY-2-PHENYLPROPANOATE” (ADS Therapeutics LLC, priority 2022, published 2025)
